Assay results from patent publication EP3035931B1, “COMPOSITION FOR REDUCING NERVOUS SYSTEM INJURY AND METHOD OF MAKING AND USE THEREOF” (Morehouse School of Medicine, priority 2013, dated 2015).

How the values were obtained:
TRPM7 channels = TRPM7 channels (Homo sapiens, UniProt Q96QT4); assay: Conductance of TRPM7 channels; format: cell-based
[1] = Efficacious plasma and brain concentration in mice; format: in vivo
Source text: It is thus estimated that only a 10-fold increase in potency is necessary to achieve efficacious concentrations that are suitable for an acute therapeutic for stroke in humans. […]

ASICs = molecular target: T1, ASICs (Mus musculus, UniProt Q6NXK8); format: cell-based; settings: cultured mouse cortical neurons; n=8; read-out: IC50, dose-dependent blockade of ASIC currents
T1 sequence (Q6NXK8 1-526): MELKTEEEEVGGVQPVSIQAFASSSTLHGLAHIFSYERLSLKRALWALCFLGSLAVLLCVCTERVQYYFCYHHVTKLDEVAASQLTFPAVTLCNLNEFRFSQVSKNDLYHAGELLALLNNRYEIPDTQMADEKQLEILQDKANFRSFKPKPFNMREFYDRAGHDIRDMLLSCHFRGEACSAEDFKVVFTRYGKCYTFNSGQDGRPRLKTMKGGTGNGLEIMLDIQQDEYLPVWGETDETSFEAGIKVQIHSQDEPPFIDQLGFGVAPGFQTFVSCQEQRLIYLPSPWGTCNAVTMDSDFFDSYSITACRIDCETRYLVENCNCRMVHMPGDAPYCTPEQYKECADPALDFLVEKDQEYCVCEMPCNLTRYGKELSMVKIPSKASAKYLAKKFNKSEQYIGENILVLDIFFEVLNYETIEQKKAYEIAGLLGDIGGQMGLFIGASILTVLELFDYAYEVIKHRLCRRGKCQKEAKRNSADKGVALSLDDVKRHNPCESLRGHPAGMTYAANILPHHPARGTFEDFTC
T1 sequence (Q925H0 1-512 partner): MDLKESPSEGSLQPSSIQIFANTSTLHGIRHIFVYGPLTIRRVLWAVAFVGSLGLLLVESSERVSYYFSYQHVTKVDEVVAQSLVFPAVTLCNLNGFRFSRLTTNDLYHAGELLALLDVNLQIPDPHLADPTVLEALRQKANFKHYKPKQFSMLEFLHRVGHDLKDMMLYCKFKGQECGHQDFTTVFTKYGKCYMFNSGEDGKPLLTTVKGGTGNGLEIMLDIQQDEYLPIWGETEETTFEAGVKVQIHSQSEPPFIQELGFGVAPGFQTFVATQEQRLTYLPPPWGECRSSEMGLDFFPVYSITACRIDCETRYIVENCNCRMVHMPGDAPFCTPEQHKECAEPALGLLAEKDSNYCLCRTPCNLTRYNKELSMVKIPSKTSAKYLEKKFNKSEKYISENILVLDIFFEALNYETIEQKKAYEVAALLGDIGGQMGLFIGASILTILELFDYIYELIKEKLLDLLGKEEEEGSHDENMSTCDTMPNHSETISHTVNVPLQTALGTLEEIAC

ASIC1^-/- neurons = format: cell-based, mouse; settings: ASIC1^-/- neurons; n=8 each
Method: Following anesthesia with halothane, cerebral cortices were dissected from E16 Swiss mice or P1 ASIC1+/+ and ASIC1-/- mice and incubated with 0.05% trypsin-EDTA for 10 min at 37° C. Tissues were then triturated with fire-polished glass pipettes and plated on poly-L-ornithine-coated 24-well plates or 25x25 mm glass coverslips at a density of 2.5x10^5 cells per well or 10^6 cells per coverslip. Neurons were cultured with MEM supplemented with 10% horse serum (for E16 cultures) or Neurobasal medium supplemented with B27 (for PI cultures) and used for electrophysiology and toxicity studies after 12 days. Glial growth was suppressed by addition of 5-fluoro-2-deoxyuridine and uridine, yielding cultured cells with 90% neurons as determined by NeuN and GFAP staining (data not shown).
Background absorbance at 620 was subtracted.
. […] . In contrast to acid incubation, 1 hr treatment of ASIC1^-/- neurons with 1 mM NMDA+10 µM glycine (in Mg^2+-free [pH 7.4] ECF) induced 84.8% ± 1.4% of maximal LDH release at 24 hr (n=4, FIG. 9C), indicating normal response to other cell injury processes.

[2] = Mouse 60 min MCAO, intracerebroventricular injection one hour after MCAO, infarct volume; settings: mice, evaluated one day after ischemia induction, FIG. 18
[3] = Mouse 60 min MCAO, intravenous injection, infarct volume; format: in vivo; settings: mice, intravenous injection 1, 3 or 5 hours after MCAO, FIG. 19

TRPM7 channels, sequence (Q96QT4 whole entry): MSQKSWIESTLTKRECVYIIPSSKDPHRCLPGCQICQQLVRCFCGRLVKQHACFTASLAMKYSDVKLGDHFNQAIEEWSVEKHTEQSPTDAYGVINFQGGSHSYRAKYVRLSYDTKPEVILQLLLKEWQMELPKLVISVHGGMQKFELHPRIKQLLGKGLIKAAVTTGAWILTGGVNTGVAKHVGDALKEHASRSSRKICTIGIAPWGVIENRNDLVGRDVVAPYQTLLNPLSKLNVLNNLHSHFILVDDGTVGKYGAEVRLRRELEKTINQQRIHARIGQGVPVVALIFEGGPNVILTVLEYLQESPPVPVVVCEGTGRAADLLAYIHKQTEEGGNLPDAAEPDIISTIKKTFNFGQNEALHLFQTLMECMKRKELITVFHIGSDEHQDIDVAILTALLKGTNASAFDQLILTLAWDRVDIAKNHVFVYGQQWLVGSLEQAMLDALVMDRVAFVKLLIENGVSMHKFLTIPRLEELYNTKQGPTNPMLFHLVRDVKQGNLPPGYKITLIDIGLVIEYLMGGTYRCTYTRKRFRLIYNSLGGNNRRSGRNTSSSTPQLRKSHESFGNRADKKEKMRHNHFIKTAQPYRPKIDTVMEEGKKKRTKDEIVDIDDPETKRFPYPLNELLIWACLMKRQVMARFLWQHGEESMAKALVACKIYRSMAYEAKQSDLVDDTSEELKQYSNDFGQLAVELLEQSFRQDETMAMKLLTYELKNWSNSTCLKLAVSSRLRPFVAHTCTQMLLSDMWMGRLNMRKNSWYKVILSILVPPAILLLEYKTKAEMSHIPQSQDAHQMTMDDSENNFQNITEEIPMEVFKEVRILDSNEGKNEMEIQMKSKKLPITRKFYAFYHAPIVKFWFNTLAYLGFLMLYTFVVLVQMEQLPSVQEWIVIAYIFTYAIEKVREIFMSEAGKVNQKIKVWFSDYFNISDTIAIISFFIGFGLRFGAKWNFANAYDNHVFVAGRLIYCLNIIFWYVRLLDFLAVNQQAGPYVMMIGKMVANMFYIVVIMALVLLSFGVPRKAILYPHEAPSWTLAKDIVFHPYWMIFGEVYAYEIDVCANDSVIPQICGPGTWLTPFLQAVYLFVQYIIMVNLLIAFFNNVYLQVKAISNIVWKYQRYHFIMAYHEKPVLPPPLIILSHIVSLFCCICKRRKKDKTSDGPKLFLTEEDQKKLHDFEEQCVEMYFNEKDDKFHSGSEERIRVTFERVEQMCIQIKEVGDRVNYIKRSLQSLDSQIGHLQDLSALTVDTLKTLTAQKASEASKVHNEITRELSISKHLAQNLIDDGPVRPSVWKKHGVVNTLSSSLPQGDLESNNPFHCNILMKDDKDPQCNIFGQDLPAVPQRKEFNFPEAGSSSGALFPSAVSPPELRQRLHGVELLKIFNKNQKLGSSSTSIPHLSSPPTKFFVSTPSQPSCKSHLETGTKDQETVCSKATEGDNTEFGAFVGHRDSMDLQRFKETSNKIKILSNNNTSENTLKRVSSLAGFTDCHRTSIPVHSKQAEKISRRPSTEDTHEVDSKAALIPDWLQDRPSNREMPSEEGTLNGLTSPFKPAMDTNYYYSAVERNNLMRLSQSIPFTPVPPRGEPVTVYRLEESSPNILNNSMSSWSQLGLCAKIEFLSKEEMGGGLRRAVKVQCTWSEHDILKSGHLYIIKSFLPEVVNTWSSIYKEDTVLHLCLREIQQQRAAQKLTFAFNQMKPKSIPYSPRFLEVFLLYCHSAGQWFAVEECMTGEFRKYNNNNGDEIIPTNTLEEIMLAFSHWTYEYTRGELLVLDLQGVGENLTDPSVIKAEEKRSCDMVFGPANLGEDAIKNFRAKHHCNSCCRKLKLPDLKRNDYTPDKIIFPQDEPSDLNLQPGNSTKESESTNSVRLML

With N=C(N)NC(=O)c1nc(Cl)c(N)nc1N [amiloride] the “conductance of TRPM7 channels” value (TRPM7 channels) was “no effect”, the “total brain concentration at which efficacy can be achieved” value ([1]; icv dose of 1 µl x 500 µM) was 12.5 µM and the “plasma concentration at which efficacy can be achieved” value ([1]; iv dose of 50 µl x 1mM) was 32.5 µM. The IC50 (ASICs) was 16.4 ± 4.1 µM, the “effect on acid-induced LDH release after knockout of the ASIC1 gene” value (ASIC1^-/- neurons) was “eliminated the effect” and the infarct volume [2] was “effectively reduce infarct volume”. The infarct volume [3] was “effectively reduce infarct volume”.
